Measurements taken from ChEMBL document CHEMBL4507268 (2021).

Key:
Conditions in all cases: Compound concentration 1.0 uM
[1] = target: Dual specificity mitogen-activated protein kinase kinase 1 (Homo sapiens) (UniProt Q02750)
[2] = target: Calcium/calmodulin-dependent protein kinase type II subunit alpha (Homo sapiens) (UniProt Q9UQM7)
[3] = target: Proto-oncogene tyrosine-protein kinase ROS (Homo sapiens) (UniProt P08922)
[4] = target: T1, Mitogen-activated protein kinase kinase kinase 5 (Homo sapiens) (UniProt Q99683)
T1 sequence (whole entry): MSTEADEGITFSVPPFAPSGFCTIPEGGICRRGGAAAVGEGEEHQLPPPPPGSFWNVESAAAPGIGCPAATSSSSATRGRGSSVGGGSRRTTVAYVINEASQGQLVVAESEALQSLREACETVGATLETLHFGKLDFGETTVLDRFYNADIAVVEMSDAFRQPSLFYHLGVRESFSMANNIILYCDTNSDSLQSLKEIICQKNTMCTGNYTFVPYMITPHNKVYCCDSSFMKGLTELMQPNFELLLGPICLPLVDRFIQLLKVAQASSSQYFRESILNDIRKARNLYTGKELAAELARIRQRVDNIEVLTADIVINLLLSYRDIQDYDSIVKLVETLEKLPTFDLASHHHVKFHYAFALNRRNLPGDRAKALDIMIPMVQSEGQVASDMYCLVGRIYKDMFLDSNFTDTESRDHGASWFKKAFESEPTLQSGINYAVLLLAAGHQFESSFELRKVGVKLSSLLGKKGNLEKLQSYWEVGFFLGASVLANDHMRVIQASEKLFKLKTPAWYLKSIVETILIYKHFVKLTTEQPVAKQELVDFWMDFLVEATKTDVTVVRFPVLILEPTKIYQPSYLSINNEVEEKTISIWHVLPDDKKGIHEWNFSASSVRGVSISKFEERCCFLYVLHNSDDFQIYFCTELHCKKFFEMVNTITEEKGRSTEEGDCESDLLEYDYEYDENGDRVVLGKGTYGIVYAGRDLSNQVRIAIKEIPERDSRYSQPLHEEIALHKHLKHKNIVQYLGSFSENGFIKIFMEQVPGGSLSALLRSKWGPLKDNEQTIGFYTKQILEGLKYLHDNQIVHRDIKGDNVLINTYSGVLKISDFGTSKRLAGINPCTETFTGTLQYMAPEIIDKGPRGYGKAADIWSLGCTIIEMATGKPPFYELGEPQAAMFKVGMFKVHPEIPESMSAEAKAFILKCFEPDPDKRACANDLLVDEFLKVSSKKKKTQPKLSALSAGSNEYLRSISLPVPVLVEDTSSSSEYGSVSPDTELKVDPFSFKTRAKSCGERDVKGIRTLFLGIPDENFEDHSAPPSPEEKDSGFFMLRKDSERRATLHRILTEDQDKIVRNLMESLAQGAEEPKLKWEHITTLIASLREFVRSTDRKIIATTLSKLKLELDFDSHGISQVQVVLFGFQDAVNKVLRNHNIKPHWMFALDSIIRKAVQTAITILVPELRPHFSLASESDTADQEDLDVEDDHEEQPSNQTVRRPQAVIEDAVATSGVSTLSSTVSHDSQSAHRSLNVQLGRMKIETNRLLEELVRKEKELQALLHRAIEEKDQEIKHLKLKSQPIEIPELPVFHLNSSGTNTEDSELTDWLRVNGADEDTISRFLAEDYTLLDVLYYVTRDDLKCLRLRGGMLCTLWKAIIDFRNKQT

[5] = target: Serine/threonine-protein kinase Nek6 (Homo sapiens) (UniProt Q9HC98)
Sequence of Serine/threonine-protein kinase Nek6 (Homo sapiens) (Q9HC98 whole entry): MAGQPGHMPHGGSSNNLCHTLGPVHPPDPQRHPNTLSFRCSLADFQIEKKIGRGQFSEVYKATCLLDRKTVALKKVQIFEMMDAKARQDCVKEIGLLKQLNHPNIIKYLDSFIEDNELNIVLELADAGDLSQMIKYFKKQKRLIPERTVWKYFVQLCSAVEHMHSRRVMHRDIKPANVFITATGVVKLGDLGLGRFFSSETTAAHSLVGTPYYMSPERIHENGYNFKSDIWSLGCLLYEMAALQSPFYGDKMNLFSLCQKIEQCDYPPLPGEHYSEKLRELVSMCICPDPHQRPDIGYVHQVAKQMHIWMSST

[6] = target: Calcium/calmodulin-dependent protein kinase type 1B (Homo sapiens) (UniProt Q6P2M8)
Sequence of Calcium/calmodulin-dependent protein kinase type 1B (Homo sapiens) (Q6P2M8 whole entry, canonical isoform): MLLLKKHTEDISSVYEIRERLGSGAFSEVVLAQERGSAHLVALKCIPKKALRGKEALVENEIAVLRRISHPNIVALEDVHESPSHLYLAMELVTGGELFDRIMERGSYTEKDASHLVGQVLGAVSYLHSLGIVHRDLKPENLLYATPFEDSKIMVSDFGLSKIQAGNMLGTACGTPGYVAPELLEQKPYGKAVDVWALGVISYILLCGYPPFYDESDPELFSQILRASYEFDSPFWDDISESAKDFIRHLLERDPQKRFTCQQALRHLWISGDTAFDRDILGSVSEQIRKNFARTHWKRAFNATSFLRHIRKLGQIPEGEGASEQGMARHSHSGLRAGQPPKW

[7] = target: Phosphorylase b kinase gamma catalytic chain, skeletal muscle/heart isoform (Homo sapiens) (UniProt Q16816)
Sequence of Phosphorylase b kinase gamma catalytic chain, skeletal muscle/heart isoform (Homo sapiens) (Q16816 whole entry, looked up, canonical isoform): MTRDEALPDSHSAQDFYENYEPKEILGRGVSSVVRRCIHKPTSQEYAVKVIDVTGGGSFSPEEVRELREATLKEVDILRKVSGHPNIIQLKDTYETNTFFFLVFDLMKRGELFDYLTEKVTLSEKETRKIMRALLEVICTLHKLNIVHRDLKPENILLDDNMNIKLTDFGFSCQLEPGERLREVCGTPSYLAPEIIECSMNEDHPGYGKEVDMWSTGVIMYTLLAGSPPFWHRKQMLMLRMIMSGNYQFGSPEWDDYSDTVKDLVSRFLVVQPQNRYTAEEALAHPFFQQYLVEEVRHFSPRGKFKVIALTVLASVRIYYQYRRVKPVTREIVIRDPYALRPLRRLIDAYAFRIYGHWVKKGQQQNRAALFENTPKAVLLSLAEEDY

[8] = target: Activin receptor type-1-like (Homo sapiens) (UniProt P37023)
Sequence of Activin receptor type-1-like (Homo sapiens) (P37023 whole entry): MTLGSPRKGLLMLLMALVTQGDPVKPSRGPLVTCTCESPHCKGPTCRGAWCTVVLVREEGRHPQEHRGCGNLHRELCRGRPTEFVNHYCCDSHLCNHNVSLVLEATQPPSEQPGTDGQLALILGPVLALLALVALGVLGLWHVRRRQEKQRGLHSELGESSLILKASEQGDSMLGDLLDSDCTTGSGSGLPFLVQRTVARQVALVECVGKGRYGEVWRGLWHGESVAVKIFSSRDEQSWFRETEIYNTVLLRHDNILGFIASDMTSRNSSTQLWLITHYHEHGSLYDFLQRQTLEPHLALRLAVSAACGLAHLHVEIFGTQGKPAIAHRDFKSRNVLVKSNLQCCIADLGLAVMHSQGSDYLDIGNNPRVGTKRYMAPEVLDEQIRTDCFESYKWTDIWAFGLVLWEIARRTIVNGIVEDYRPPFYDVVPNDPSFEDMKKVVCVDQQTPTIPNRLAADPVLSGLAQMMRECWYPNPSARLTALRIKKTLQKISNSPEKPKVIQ

[9] = target: Serine/threonine-protein kinase 35 (Homo sapiens) (UniProt Q8TDR2)
Sequence of Serine/threonine-protein kinase 35 (Homo sapiens) (Q8TDR2 whole entry): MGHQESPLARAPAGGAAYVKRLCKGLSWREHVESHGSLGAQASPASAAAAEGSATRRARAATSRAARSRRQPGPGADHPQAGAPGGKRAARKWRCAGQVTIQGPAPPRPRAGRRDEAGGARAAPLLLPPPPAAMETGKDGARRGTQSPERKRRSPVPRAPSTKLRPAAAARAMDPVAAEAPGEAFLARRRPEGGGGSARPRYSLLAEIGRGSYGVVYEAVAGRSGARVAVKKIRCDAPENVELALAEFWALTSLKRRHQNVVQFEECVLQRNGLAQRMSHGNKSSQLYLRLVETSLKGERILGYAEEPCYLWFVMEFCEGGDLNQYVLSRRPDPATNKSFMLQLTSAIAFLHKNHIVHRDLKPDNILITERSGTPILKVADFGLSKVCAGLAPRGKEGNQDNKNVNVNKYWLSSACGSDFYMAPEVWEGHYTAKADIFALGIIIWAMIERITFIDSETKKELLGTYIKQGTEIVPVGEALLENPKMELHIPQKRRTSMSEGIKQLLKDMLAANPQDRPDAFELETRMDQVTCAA

[10] = target: Serine/threonine-protein kinase PLK2 (Homo sapiens) (UniProt Q9NYY3)
Sequence of Serine/threonine-protein kinase PLK2 (Homo sapiens) (Q9NYY3 whole entry, looked up): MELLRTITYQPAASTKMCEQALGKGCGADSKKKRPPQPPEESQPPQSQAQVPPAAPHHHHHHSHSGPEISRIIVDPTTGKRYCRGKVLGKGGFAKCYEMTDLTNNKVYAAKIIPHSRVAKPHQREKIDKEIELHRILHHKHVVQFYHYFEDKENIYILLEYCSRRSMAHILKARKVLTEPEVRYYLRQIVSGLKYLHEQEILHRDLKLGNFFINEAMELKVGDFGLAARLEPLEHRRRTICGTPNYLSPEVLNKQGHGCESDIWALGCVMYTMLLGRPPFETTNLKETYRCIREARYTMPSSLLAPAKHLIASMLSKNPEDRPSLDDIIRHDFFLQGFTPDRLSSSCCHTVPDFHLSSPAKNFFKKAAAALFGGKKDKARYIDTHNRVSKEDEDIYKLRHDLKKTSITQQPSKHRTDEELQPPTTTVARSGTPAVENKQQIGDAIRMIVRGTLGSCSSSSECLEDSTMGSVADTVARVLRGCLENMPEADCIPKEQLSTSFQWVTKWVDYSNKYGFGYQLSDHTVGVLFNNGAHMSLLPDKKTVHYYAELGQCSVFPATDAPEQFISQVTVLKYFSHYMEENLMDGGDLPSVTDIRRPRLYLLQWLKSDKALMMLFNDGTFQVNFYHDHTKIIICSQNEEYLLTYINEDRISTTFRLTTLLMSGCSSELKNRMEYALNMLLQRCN

[11] = species: Homo sapiens
[12] = target: Cyclin-dependent kinase-like 1 (Homo sapiens) (UniProt Q00532)
Sequence of Cyclin-dependent kinase-like 1 (Homo sapiens) (Q00532 whole entry): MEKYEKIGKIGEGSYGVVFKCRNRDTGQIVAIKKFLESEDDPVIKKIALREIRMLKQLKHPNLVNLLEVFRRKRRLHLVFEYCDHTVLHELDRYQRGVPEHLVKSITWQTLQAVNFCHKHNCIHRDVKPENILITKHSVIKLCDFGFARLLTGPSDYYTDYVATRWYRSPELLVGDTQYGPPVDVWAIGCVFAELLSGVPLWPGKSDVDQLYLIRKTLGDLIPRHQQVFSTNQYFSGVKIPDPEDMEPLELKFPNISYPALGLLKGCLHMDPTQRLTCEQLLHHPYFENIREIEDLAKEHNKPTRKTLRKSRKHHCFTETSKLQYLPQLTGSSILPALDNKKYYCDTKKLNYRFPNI

[13] = target: PI3-kinase p110-alpha/p85-alpha (Homo sapiens) (UniProt P27986+P42336)
[14] = target: Protein kinase C gamma type (Homo sapiens) (UniProt P05129)
[15] = target: T2, SNF-related serine/threonine-protein kinase (Homo sapiens) (UniProt Q9NRH2)
T2 sequence (whole entry): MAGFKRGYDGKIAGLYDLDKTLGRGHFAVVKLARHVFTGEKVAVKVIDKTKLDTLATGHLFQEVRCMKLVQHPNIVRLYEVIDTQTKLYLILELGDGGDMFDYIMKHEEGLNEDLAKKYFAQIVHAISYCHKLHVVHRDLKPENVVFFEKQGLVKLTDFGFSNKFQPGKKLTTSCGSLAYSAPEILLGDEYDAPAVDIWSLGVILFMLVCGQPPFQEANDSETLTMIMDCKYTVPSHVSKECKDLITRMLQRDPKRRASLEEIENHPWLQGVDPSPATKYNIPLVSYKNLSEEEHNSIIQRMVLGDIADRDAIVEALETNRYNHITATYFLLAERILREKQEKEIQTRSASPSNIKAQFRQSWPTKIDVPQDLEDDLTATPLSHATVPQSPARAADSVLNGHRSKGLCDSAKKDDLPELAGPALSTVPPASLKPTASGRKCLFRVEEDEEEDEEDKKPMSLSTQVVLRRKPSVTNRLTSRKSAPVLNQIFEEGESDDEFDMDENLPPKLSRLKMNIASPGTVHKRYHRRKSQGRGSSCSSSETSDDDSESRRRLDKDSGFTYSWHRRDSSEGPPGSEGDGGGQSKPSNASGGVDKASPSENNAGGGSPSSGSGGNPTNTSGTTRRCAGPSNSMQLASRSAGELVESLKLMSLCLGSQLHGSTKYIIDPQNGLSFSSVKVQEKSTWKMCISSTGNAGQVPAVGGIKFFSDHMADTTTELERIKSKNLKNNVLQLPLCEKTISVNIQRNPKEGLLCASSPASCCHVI

[16] = target: Mitogen-activated protein kinase 8 (Homo sapiens) (UniProt P45983)

Measured: % residual kinase activity

Sequence of Calcium/calmodulin-dependent protein kinase type II subunit alpha (Homo sapiens) (Q9UQM7 whole entry): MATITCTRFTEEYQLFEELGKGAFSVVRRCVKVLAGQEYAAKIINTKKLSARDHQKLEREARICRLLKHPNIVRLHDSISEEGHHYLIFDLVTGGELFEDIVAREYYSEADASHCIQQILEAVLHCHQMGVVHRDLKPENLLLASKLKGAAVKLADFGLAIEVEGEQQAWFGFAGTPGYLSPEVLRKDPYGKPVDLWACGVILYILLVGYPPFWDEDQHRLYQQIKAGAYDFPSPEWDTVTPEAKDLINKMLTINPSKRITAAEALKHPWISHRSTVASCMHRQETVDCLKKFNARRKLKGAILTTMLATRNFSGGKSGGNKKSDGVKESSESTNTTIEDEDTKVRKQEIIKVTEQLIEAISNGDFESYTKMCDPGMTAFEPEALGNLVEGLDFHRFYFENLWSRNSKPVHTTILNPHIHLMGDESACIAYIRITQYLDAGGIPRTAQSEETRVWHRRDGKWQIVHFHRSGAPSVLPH
Sequence of Dual specificity mitogen-activated protein kinase kinase 1 (Homo sapiens) (Q02750 whole entry): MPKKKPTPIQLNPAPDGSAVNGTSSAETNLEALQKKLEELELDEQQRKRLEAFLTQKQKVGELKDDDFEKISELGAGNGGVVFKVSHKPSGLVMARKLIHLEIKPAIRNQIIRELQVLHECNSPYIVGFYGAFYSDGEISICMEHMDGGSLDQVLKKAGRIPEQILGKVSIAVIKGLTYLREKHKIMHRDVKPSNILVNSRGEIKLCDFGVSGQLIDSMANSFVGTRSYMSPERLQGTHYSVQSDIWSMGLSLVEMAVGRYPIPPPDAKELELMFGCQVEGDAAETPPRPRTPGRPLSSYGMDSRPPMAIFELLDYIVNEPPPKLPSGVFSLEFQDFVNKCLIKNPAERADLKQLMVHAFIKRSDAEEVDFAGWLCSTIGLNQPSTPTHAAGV

CN1CCN(c2cnc3c(C4CCN(C(=O)c5ccc(OC(F)(F)F)cc5N)CC4)ncnc3c2)CC1 [BAY-885]
inactive: [1] 115% | [2] 108% | [3] 111% | [4] 99% | [5] 125% | [6] 104% | [7] 103% | [8] 118% | [9] 116% | [10] 119% | [11] 107% | [12] 115% | [13] 98% | [14] 120% | [15] 118% | [16] 104%
